From publication PMC11678869, “Functional Role of Odorant-Binding Proteins in Response to Sex Pheromone Component Z8-14:Ac in Grapholita molesta (Busck)” (Insects, 2024) come the findings set out here.

Experiment [1] concerns PFM male antennae. In words: Electroantennogram (EAG) analysis. Also noted: species or system Grapholita funebrana. As to conditions: 20, 200 and 2000 μg doses. As for the experimental part: (§1) Electroantennogram (EAG) equipment (Syntech, Hilversum, The Netherlands) was used to record the antennal responses of the OFM and PFM adults to Z8-12:Ac, E8-12:Ac, Z8-12:OH, Z8-14:Ac, and Z10-14:Ac. These sex pheromone compounds were diluted with liquid paraffin to prepare a stimulus solution of 100 μg/μL, which was subsequently diluted to 10 and 1 μg/μL. Antenna from 3-day-old OFM and 2- to 4-day-old PFM virgin males were excised at its base, with the distal part of the terminal segment being removed. Then, the treated antenna was attached to electrode holders with SpectraR360 conducting gel. A stimulus controller (model CS-55, Syntegon Technology, Waiblingen, Germany) continuously supplied a humidified air stream at a rate of 500 mL/min. Then, 20 μL of each stimulus solution was adsorbed onto a twice-folded filter paper strip (0.5 cm × 4 cm) placed on the wide section of a l mL pipette tip, which served as an odorant cartridge. Vapor stimuli were delivered by an air compressor into the constant air stream described above, flowing in a copper delivery tube (i.d. 8 mm) with the outlet positioned approximately 1 cm from the antenna. The EAG amplitude tests of the OFM and PFM males’ responses to sex pheromones started with solvent control stimuli (20 μL of liquid paraffin), followed by stimulation with 20, 200, and 2000 μg doses (20 μL of 1.0, 10.0, and 100.0 μg/μL of liquid paraffin solutions, respectively) of stimulus in sequence. The solvent control was performed at the end of the run. To control for variations among antennae, each sample was tested on 10 antennae of different males. The EAG signals and data were analyzed using EAG 2000 software (Syntech, Hilversum, The Netherlands). The corrected EAG amplitude value = absolute EAG amplitude value − (EAGck1 + EAGck2)/2, where EAGck1 and EAGck2 represent the absolute EAG amplitude values of the solvent control before and after measuring each stimulus, respectively. The relative EAG response of the OFM and PFM males to the same doses of sex pheromones were subjected to an analysis of independent sample t-test (p = 0.05) using SPSS version 23.0 (IBM).

Experiment [2] relates to OFM male antennae. In words: Electroantennogram (EAG) analysis. Also noted: species or system Grapholita molesta. The note with it: for EAG response of OFM males: 20, 200 and 2000 μg doses. As for the experimental part:
as §1

Experiment [3] deals with PFM males. In words: Field trapping with delta traps, pear orchard. It counts as in vivo, Grapholita funebrana. As for the experimental part: (§2) To determine the inhibitory effects on OFM male adults and the impact on the trapping effects of PFM male adults, varying amounts of Z8-14:Ac (0, 5, 10, 25, 50, 75, 100, 125, 150 μg) or Z10-14:Ac (0, 25, 50, 100, 150, 250, 350, 450, and 550 μg) were added to rubber septa loaded with a constant dosage of the main pheromone (500 μg of Z8-12:Ac and 20 μg of E8-12:Ac) of the PFM. Trapping experiments of Z8-14:Ac were carried out in peach and pear orchards in Yan’an and Xinjiang (China), respectively. Trapping tests of Z10-14:Ac were performed in pear orchards in Xinjiang (China). Each orchard had nine plots, with three plots in one field. Each plot consisted of a linear arrangement of traps loaded with a constant dosage of the main pheromones and different percentages of the secondary pheromone Z8-14:Ac or Z10-14:Ac of the PFM. Plots in the same field were placed 30 m apart, and fields were ≥1 km apart. The traps were hung 1.4 m from the ground on a suspension bracket between two rows of peach or pear trees from 10 June to 25 July 2021 in Xinjiang and from 15 June to 30 July 2021 in Yan’an. The positions of the traps within the plot were randomly arranged. Every 5 days, counts were taken, and the traps were rotated to the adjacent position to avoid any potential position effects. The septa loaded with sex pheromone components were replaced with new ones after every 15 days of suspension. The data were analyzed using a one-way ANOVA, and the differences in the average trapping of OFM and PFM males using sex attractants containing different amounts of Z8-14:Ac or Z10-14:Ac were further analyzed using Tukey’s HSD test, both of which were performed using SPSS 23.0.

In experiment [4] the test system is OFM males. Kind of experiment: Field trapping with delta traps, pear orchard. Format: in vivo, Grapholita molesta. The note with it: pear orchard; for Inhibition Rate of OFM Males: vs 100:4:0. The protocol: as §2
Setting [5] is: Z8-12:Ac/E8-12:Ac/Z10-14:Ac 500/20/25 μg (100:4:5).
Setting [6] is: Z8-12:Ac/E8-12:Ac/Z10-14:Ac 500/20/50 μg (100:4:10).
The mark [7] stands for this setting: Z8-12:Ac/E8-12:Ac/Z10-14:Ac 500/20/100 μg (100:4:20).
Where [8] appears, read: Z8-12:Ac/E8-12:Ac/Z10-14:Ac 500/20/150 μg (100:4:30).
Where [9] appears, read: Z8-12:Ac/E8-12:Ac/Z10-14:Ac 500/20/250 μg (100:4:50).
The mark [10] stands for this setting: Z8-12:Ac/E8-12:Ac/Z10-14:Ac 500/20/350 μg (100:4:70).
Setting [11] is: Z8-12:Ac/E8-12:Ac/Z10-14:Ac 500/20/450 μg (100:4:90).
The mark [12] stands for this setting: Z8-12:Ac/E8-12:Ac/Z10-14:Ac 500/20/550 μg (100:4:110).
Where [13] appears, read: more than 10% of Z10-14:Ac added to Z8-12:Ac and E8-12:Ac (100:4).

Structures are written as SMILES. A value given as a limit tells only on which side of the number the result lay.

With `CCC/C=C/CCCCCCCOC(C)=O` [E8-12:Ac, (E)-8-dodecenyl acetate], the “EAG response of PFM males” value in experiment [1] is listed as “higher sensitivity”. Besides, the “EAG response of OFM males” value in experiment [2] is given as “higher sensitivity”.

With `CCC/C=C\CCCCCCCOC(C)=O` [Z8-12:Ac, (Z)-8-dodecenyl acetate], the “EAG response of PFM males” value in experiment [1] is “higher sensitivity”. In experiment [2], the “EAG response of OFM males” value was “higher sensitivity”.

On to `CCC/C=C\CCCCCCCCCOC(C)=O` [Z10-14:Ac, (Z)-10-tetradecenyl acetate], for which the “Total PFM Males/Trap” value is given as 121.32 ± 12.10 ab Males/Trap in experiment [3] (setting [5]); 101.39 ± 7.72 b Males/Trap in experiment [3] (setting [6]); 102.73 ± 10.21 b Males/Trap in experiment [3] (setting [7]); 66.08 ± 8.27 c Males/Trap in experiment [3] (setting [8]); 62.46 ± 5.63 c Males/Trap in experiment [3] (setting [9]); 51.35 ± 7.21cd Males/Trap in experiment [3] (setting [10]). In addition, the “Total PFM Males/Trap” value in experiment [3] (setting [11]) was 41.24 ± 5.10 d Males/Trap; in experiment [3] (setting [12]), 42.33 ± 3.95 d Males/Trap. For the same compound, the “maximum reduction of the capture of PFM males” value in experiment [3] (setting [13]) is on record as ≤ 71.07%. The “EAG response of PFM males” value in experiment [1] is “moderate EAG response”. Also, the “Total OFM Males/Trap” value in experiment [4] (setting [5]) is listed as 125.55 ± 14.47 ab Males/Trap; in experiment [4] (setting [6]), 97.92 ± 10.31 bc Males/Trap; in experiment [4] (setting [7]) it was 83.33 ± 9.82 cd Males/Trap; in experiment [4] (setting [8]), 33.56 ± 2.24 e Males/Trap; in experiment [4] (setting [9]) it was 31.28 ± 3.22 e Males/Trap; in experiment [4] (setting [10]) it was 37.49 ± 3.45 e Males/Trap. Moreover, the “Total OFM Males/Trap” value in experiment [4] (setting [11]) stood at 23.64 ± 1.23 e Males/Trap; in experiment [4] (setting [12]), 29.69 ± 2.18 e Males/Trap. For the same compound, the “Inhibition Rate of OFM Males” value was determined as 35.04% in experiment [4] (setting [5]); 49.34% in experiment [4] (setting [6]); 56.89% in experiment [4] (setting [7]); 82.64% in experiment [4] (setting [8]); 83.82% in experiment [4] (setting [9]); 87.77% in experiment [4] (setting [11]). Besides, the “Inhibition Rate of OFM Males” value in experiment [4] (setting [12]) amounted to 84.64%. Moreover, the “maximum reduction of the capture of OFM males” value in experiment [4] (setting [13]) is “up to 87.77%”. The “EAG values of OFM males compared with PFM males” value in experiment [2] (20 μg) is “absence of significant difference”; in experiment [2] (200 and 2000 μg), “significantly greater than that of PFM males”. Further, the “EAG response of OFM males” value in experiment [2] was “moderate EAG response”.
